“Also recorded” adds a separate entry of the source.
How the values were obtained:
[1] = system: HPMECs (human primary pulmonary microvascular endothelial cells); settings: cited from earlier work
[2] = system: bleomycin-challenged C57BL/6 mice; assay: Bleomycin-induced pulmonary fibrosis model; assay type: in vivo, mouse; settings: 15 mg/kg; FIG. 6A
[3] = system: HLFs (human lung fibroblasts); settings: cited from earlier work
NEUs 2-4 = settings: cited from earlier work
[4] = system: BALF cell sialidase activity; assay: Total BALF cell sialidase activity after in vivo dosing; parameters: species or system mouse; settings: 15 mg/kg ip, re-injected after 24 h, harvested 18 h later; vs saline
Protocol: (§1) Fluorometric Assay for Sialidase Activity: Lungs harvested from mice pretreated with one of three sialidase inhibitors or saline alone were weighed, homogenized, centrifuged, and the supernatants collected. These samples and SAECs, HPMECs, and NHLFs preincubated with increasing concentrations of the NEU1-selective NEU inhibitor, III-32B5 were suspended in 200μλ of 500 mM sodium acetate, pH 4.4 containing 0.1% Triton X-100, and a protease inhibitor mixture (Roche Applied Science), and then incubated for 1 h at 37° C. with 25 μl of 2.0 mM 2′-(4-methylumbelliferyl)-α-D-N-acetylneuraminic acid (4-MU-NANA), mixing the tubes every 15 min. The NEU reaction was terminated by addition of 133 mM glycine, pH 10.3, 60 mM NaCl, and 0,083 M […] after which the fluorescence intensity was measured with a Bio-Rad fluorometer (excitation at 355 nm; emission at 460 nm).
After 24 h, the mice were administered these same injections, and 18 h later, were euthanized and their BALFs and lungs harvested. The lungs were processed for total protein levels and total sialidase activity. […] The BALFs from these same mice were processed for cell counts and sialidase activity. […] These findings establish the ability of each of 2 NEU1-selective pharmacologic inhibitors to profoundly reduce total lung and BALF cell sialidase activity in vivo. The NEU1 inhibitor can comprise C1-methyl esters of the compounds.

[5] = system: total lung sialidase (NEU) activity; assay: Total sialidase (NEU) activity for 4-MU-NANA in mouse lung after in vivo dosing; parameters: lung sialidase activity: dose or concentration left out as unconfirmed; settings: for total lung sialidase activity: 15 mg/kg ip, harvested 18 h later
Protocol: Wild-type female C57BL/6 mice aged 10-12 weeks and weighing 18-20 g (The Jackson Laboratory, Bar Harbor, Me.) were treated in accordance with a research protocol approved by the University of Maryland Institutional Animal Care and Use Committee. Animals were maintained in sterile microisolator cages with sterile rodent feed and water in the Baltimore VA Medical Center Research Animal Facility approved by the Association for Assessment and Accreditation of Laboratory Animal Care. To model pulmonary inflammation and fibrosis, a single dose of 0.075 U of bleomycin (BLM)(Sigma-Aldrich, St. Louis, Mo.) diluted in 50 μl of sterile phosphate-buffered saline (PBS) was intratracheally (i.t.) delivered to mouse lungs on day 0. Briefly, a minor anterior midline neck incision was made to reveal the trachea, and a MicroSprayer® (Penn-Century, Wyndmoor, Philadelphia, Pa.) was inserted i.t., and the bleomycin or sterile PBS alone instilled. […] On day 14, mice were euthanized by CO2 asphyxiation followed by cervical dislocation. Immediately postmortem, bronchoalveolar lavage fluid (BALF)s and lungs were harvested. BALF samples were collected and analyzed. Installation and withdrawal of 1 ml of PBS twice via an 18-gauge blunt-end needle secured in the trachea were performed in each animal The 2 aliquots of BALF were pooled, centrifuged, and total and differential cell counts performed. The lungs were processed for qRT-PCR, to measure levels for NEU 1-4, PPCA, collagen 1α2, and collagen 3α1transcripts, quantitative immunoblotting for NEU1-4 and PPCA proteins, and determination of hydroxyproline as a measure of total collagen. In selected experiments, lung tissue was processed for assays of total sialidase activity for fluorogenic substrate, 2′-(4-methylumbelliferyl)-α-D-N-acetylneuraminic acid (4-MU-NANA) and peanut agglutinin (PNA) lectin blotting as an indicator of desialylation.
as §1, with “nm). […]” for “nm).”

[6] = system: bleomycin-challenged C57BL/6 mice; assay: Bleomycin-induced pulmonary fibrosis model; assay type: in vivo, mouse; settings: for BALF total cell counts, lymphocytes, and neutrophils / lung collagen mRNA (collagen 1A2, collagen 3A1; qRT-PCR) / lung collagen protein (hydroxyproline-based QuickZyme assay): 15 mg/kg i.p. daily days 8-14, day 14, vs bleomycin alone; for total body weight: 15 mg/kg i.p. daily on days 8-14 after bleomycin, by day 14
Protocol: Wild-type female C57BL/6 mice aged 10-12 weeks and weighing 18-20 g (The Jackson Laboratory, Bar Harbor, Me.) were treated in accordance with a research protocol approved by the University of Maryland Institutional Animal Care and Use Committee. Animals were maintained in sterile microisolator cages with sterile rodent feed and water in the Baltimore VA Medical Center Research Animal Facility approved by the Association for Assessment and Accreditation of Laboratory Animal Care. To model pulmonary inflammation and fibrosis, a single dose of 0.075 U of bleomycin (BLM)(Sigma-Aldrich, St. Louis, Mo.) diluted in 50 μl of sterile phosphate-buffered saline (PBS) was intratracheally (i.t.) delivered to mouse lungs on day 0. Briefly, a minor anterior midline neck incision was made to reveal the trachea, and a MicroSprayer® (Penn-Century, Wyndmoor, Philadelphia, Pa.) was inserted i.t., and the bleomycin or sterile PBS alone instilled. Mice were serially weighed, and on days 8-14, daily administered intraperitoneally (i. p.) with 15 mg/kg of 2DN, or […], or III-32B5, or vehicle alone. On day 14, mice were euthanized by CO2 asphyxiation followed by cervical dislocation. Immediately postmortem, bronchoalveolar lavage fluid (BALF)s and lungs were harvested. BALF samples were collected and analyzed. Installation and withdrawal of 1 ml of PBS twice via an 18-gauge blunt-end needle secured in the trachea were performed in each animal The 2 aliquots of BALF were pooled, centrifuged, and total and differential cell counts performed. […] Total cellular RNA was extracted from murine lung tissue. RNA purity was established with the A260/A280 absorption ratio (>1.90). Total RNA (1.0 μg) was treated with DNase I (Invitrogen) for 15 min and reverse transcribed using avian myeloblastosis virus reverse transcriptase and poly(T) primer (Promega). The resulting cDNA was quantified by real time quantitative reverse transcription-polymerase chain reaction (qRT-PCR) using SYBR Green PCR Master Mix and ABI Prism 7900HT cycler. […] Measurement of Total Lung Collagen: Collagen content was measured in lung tissue based on detection of hydroxyproline, using the Total Collagen Assay kit from QuickZyme (Leiden, The Netherlands). Briefly, following hydrolysis of 50 mg lung tissue in […] of 6M HCl for 20 h at 95° C., the hydrolysate was diluted 10-fold with 4M HCl and measured against serial dilutions of collagen standard; the results were expressed as μg collagen per mg wet lung tissue. Mice challenged I.T. with bleomycin were serially weighed, and on days 8-14, daily administered i.p. 2DN or vehicle alone. On day 14, mice were sacrificed, and BALF and lungs harvested. The BALF was processed for total and differential cell counts, and lung tissues were collagenase-digested for lymphocyte counts and flow cytometry, processed for qRT-PCR for collagen mRNA expression, or homogenized for hydroxyproline-based assays to quantify collagen protein (FIG. 1C, 1D, 1E). In all bleomycin-challenged mice, total body weight decreased through days 1-7 (FIG. 1B). While the saline-injected, bleomycin-challenged mice continued to lose body weight through the 14-day study period, on days ≥9, the 2DN-treated, bleomycin-administered mice maintained and even increased body weight. […] On day 14, total and differential BALF cell counts were performed (FIG. 1C). In the PBS-injected, bleomycin-challenged mice, total cell counts, macrophages, lymphocytes, and neutrophils each were increased compared to BALF cell counts for the simultaneous saline controls. The addition of broad-spectrum NEU inhibition with 2DN reversed the increased in total cell counts, lymphocytes, and neutrophils, each compared to counts in the PBS-injected, bleomycin-challenged mice. In these same mice, lung homogenates were processed for qRT-PCR using primers for collagen 1A2 and collagen 3A1 to quantify their mRNA expression (FIG. 1D). […]

[7] = system: SAECs (human primary small airway epithelial cells); settings: cited from earlier work
[8] = system: HPMECs (human primary pulmonary microvascular endothelial cells); assay: Fluorometric sialidase activity assay (4-MU-NANA) in HPMECs; assay type: cell-based; settings: increasing concentrations; 1.0×10^6 cells/reaction
Protocol: (§2) Human Lung Cell Cultures: Human primary small airway epithelial cell (SAEC)s isolated from the distal portion of the bronchioles and human primary pulmonary microvascular endothelial cell (HPMEC)s were purchased from Promocell (Heidelberg, Germany) SAECs were cultured in predefined small airway growth medium containing hydrocortisone, human epidermal growth factor, epinephrine, transferrin, insulin, retinoic acid, triiodothyronine, and fatty acid-free bovine serum albumin. Only SAEC passaged 2-4 were studied. HPMECs were cultured in endothelial cell growth medium (MV-2, PromoCell) containing growth medium supplement mix (PromoCell). Only HPMEC passages 4-7 were studied. Primary normal human lung fibroblast (NHLF)s were either isolated from normal lungs initially harvested from lung […] but ultimately not used in a study approved by the Institutional Review Board at the University of Maryland, or purchased from Lonza (Walkersville, Md.). […]
(§3) Fluorometric Assay for Sialidase Activity: Lungs harvested from mice pretreated with one of three sialidase inhibitors or saline alone were weighed, homogenized, centrifuged, and the supernatants collected. […] The NEU reaction was terminated by addition of 133 mM glycine, pH 10.3, 60 mM NaCl, and 0,083 M […] after which the fluorescence intensity was measured with a Bio-Rad fluorometer (excitation at 355 nm; emission at 460 nm). […]

[9] = system: HLFs (human lung fibroblasts); assay: Fluorometric sialidase activity assay (4-MU-NANA) in HLFs; assay type: cell-based; settings: increasing concentrations; 1.0×10^6 cells/reaction
Protocol: as §2, §3

[10] = system: SAECs (human primary small airway epithelial cells); assay: Fluorometric sialidase activity assay (4-MU-NANA) in SAECs; assay type: cell-based; settings: increasing concentrations; 1.0×10^6 cells/reaction
Protocol: as §2, §3

[11] = re-injected after 24 h, vs saline

Compound | sialidase activity in human lung microvascular endothelia, previously reported [1] | lung collagen deposition [2] | sialidase activity in human lung fibroblasts, previously reported [3] | IC50 (NEUs 2-4) | total BALF cell sialidase activity [4] | lung sialidase activity [5] | total lung sialidase activity [5, 11] | BALF total cell counts, lymphocytes, and neutrophils [6] | lung collagen mRNA (collagen 1A2, collagen 3A1; qRT-PCR) [6] | lung collagen protein (hydroxyproline-based QuickZyme assay) [6] | total body weight [6] | 14-day collagen deposition, mean value ([6]; mice receiving both BLM and C9-BADANA, BLM alone 13.4±2.1 μg/mg) | sialidase activity in human airway epithelia, previously reported [7] | reduction of total NEU activity in lung ([5]; 15 mg/kg i.p., re-injected after 24 h, lungs harvested 18 h later, vs saline) | sialidase activity in HPMECs [8] | sialidase activity in HLFs [9] | sialidase activity in SAECs [10]
CCCCC(=O)NC[C@H](O)[C@H](O)[C@@H]1OC(C(=O)O)=C[C@H](O)[C@H]1NC(C)=O [C9-BADANA] | inhibition | dramatically reduces | inhibition | > 1000 µM | reduced | dramatically reduces | reduced | reversed | protected against | protected against; also recorded: significantly decreased | returning to their pretreatment baselines; also recorded: counteracted | 8.6 ± 1.7 µg/mg | inhibition |  |  |  | 
CC(=O)N[C@H]1[C@H]([C@H](O)[C@H](O)CO)OC(C(=O)O)C[C@@H]1O (stereo partly drawn) [2DN, 2-deoxy-N-acetyneuraminic acid, reference compound] | inhibition |  | inhibition |  |  |  |  | reversed | reduced | reversed | returned to their pretreatment baseline |  | inhibition | at least 8 fold |  |  | 
CCCCCC(=O)N[C@H]1[C@H]([C@@H](O)[C@@H](O)CNC(C)=O)OC(C(=O)O)=C[C@@H]1O [III-32B5, C5-hexanamido-C9-acetamido-DANA] |  |  |  |  | reduced |  | reduced | reversed | protected against | protected against; also recorded: significantly decreased | returning to their pretreatment baselines; also recorded: counteracted |  |  |  | dose-dependently inhibited | dose-dependently inhibited | dose-dependently inhibited
